A short description of the series: Pharmacokinetic experiment in SD rats after gavage (LC/MS/MS plasma concentration). Type of series: in vivo. The note with it: for AUClast: SD rat experiment (5 mg/kg).
Where [1] appears, read: both sexes, rat, plasma, SD rats, po 5.0 mg/kg, suspension in 0.5% CMC-Na.
Where [2] appears, read: SD rats, po 5.0 mg/kg, suspension in 0.5% CMC-Na.

The molecule `COc1cc(C(=O)NC2CCN(C[C@H](O)c3ccc4c(c3C)COC4=O)CC2)ncc1C#N.O=C(O)C(O)C(O)C(=O)O` [Crystal form III, (R)-5-cyano-N-(1-(2-hydroxy-2-(4-methyl-1-carbonyl-1,3-dihydroisobenzofuran-5-yl)ethyl)piperidin-4-yl)-4-methoxypyridinecarboxamide tartrate] gave an AUClast of 12618 ng·h/mL. Also, under setting [1], the AUC(0-t) (in general, the area under the concentration-time curve up to a stated or last time point) was 12600 ng·h/mL; the CL/F (usually the apparent clearance, not corrected for the fraction that reaches the circulation) was found to be 6.7 mL/min/kg; the half-life (in general, how long it takes for the measured level to halve) was 4.21 h. For the same molecule, the Vd/F (both sexes, rat, plasma, SD rats, po 5.0 mg/kg, suspension in 0.5% CMC-Na, read-out: Vz/F_obs) stood at 2.45 L/kg.

The molecule `COc1cc(C(=O)NC2CCN(C[C@H](O)c3ccc4c(c3C)COC4=O)CC2)ncc1C#N` [free state] had an AUClast of 9283 ng·h/mL. For the same molecule, under setting [2], the T1/2 is 3.62 h and the Vz/F_obs is 3.019 L/kg. This molecule showed an area under the curve AUC(0-t) under setting [1] of 9280 ng·h/mL.

For the origin of these results see patent US20200347039A1, “CRYSTAL FORM OF RENAL OUTER MEDULLARY POTASSIUM CHANNEL INHIBITOR AND PREPARATION METHOD THEREOF” (JIANGSU HENGRUI MEDICINE CO., LTD., priority 2017, published 2020).
